From patent publication EP0135770A2, “Imidazobenzodiazepine derivatives, process for their preparation and medicaments containing them” (F. HOFFMANN-LA ROCHE & CO. Aktiengesellschaft, priority 1983, dated 1985)

What was measured:
CF-1-Mäuse [1] = assay: Rotating rod test (Rotierstabtest), mice observed 30 min after dosing; assay type: in vivo
Excerpt: Dieser Test ist eine Modifikation der von N.W. Dunham und T.S. Miya in J.A. Ph. A. Sci. Ed. 46, 208 (1957) beschriebenen Methode. CF-1-Mäuse, welche aufgrund ihrer Fähigkeit ausgewählt worden sind, sich während 2 Minuten auf einem Rotierstab von 30 mm Durchmesser und 16 Umdrehungen pro Minute halten zu können, werden verwendet. Gruppen von je 8 Mäusen werden 30 Minuten nach Verabreichung der Testverbindung auf den Rotierstab verbracht und während 2 Minuten beobachtet. Diejenigen Mäuse, die sich nicht während der vollen 2 Minuten auf dem Rotierstab halten können, werden als durch die Testverbindung beeinflusst qualifiziert. Die Anzahl derjenigen Mäuse, die sich auf dem Rotierstab nicht halten können, wird in Prozent der Gesamtanzahl Mäuse in jeder Gruppe bei den verschiedenen Dosen angegeben. Diese Prozentwerte werden gegen die Dosis auf logarithmischem Papier aufgezeichnet, und der ED5o-Wert wird nach der Methode von L.C. Miller und M.L. Tainter in Proc. Soc. Exp. Biol. Med. 57, 26 (1944) ermittelt.
Der Zweck des vorliegenden Tests ist die Ueberprüfung von chemischen Verbindungen im Hinblick auf ihre Wirkung auf den Muskeltonus und/oder die muskuläre Koordination. speziell diejenige von Muskelrelaxantien, Sedativa oder Stimulantien.

CF-1-Mäuse [2] = assay: Intravenous antimetrazol test (Intravenöser Antimetrazoltest), protection against Metrazol convulsions; assay type: in vivo; conditions: Mus musculus, 1 h, oral dosing, Metrazol 70 mg/kg i.v. one hour later, 50% of animals without convulsions
Protocol: Männliche CF-1-Mäuse, welche 45-54 Tage alt sind und während ungefähr 24 Stunden vom Futter ferngehalten wurden, werden in diesem Test eingesetzt. Die Testverbindung, dispergiert in 5% Akazienöl, wird 3 Mäusen oral verabreicht und zwar bei einer Dosis, die 1/10 der im TSP-Test ermittelten Lethaldosis entspricht. Eine Stunde später wird Metrazol intravenös verabreicht (70 mg/kg: konvulsive Dosis 100 mg/kg) und die Versuchstiere während 30 Sekunden beobachtet, ob ein Schutz gegenüber den Krampfanfällen eintritt. Falls die Testverbindung oral aktiv ist, werden pro Dosis 3 Versuchstiere eingesetzt. Die Dosis, bei der 50% der Versuchstiere keinerlei Krampfanfälle erleiden, wird als ED50-Wert bezeichnet.
Gemacht Messungen: Die Anzahl der Versuchstiere, welche gegen Krampfanfälle geschützt sind.
Berechnun^qen: Falls die Prüfsubstanz aktiv ist und 3 Mäuse pro Dosis eingesetzt werden, wird der approximative ED -Wert nach der Methode von Miller und Tainter (Proc. Soc. Exp. Biol. med. 57:261 (1944)) berechnet. Falls 6 oder mehr Mäuse pro Dosis eingesetzt werden, wird der ED50--Wert sowie der 95%ige Vertrauensbereich mit Hilfe eines Computerprogramms berechnet, welches auf der Methode von D.J. Finney (Probit Analysis, Cambridge University Press. Cambridge, England, 1971) beruht.
Dieser Test eignet sich zur Evaluation von Antikonvulsiva und ist für eine Aussage bezüglich der anxiolytischen Wirkung relevant.

[3] = Mus musculus, po, 0.5 h, compounds of the invention, mice unable to stay 2 min on the rotating rod, 30 min after administration, read-out: ED50
[4] = Mus musculus, po, 0.5 h, standard compounds, mice unable to stay 2 min on the rotating rod, 30 min after administration, read-out: ED50

| Compound | ED50 (CF-1-Mäuse [1]; [3]) | ED50 (CF-1-Mäuse [2]; compounds of the invention) | further results |
| --- | --- | --- | --- |
| NC(=O)c1ncn2c1CN=C(c1ccccc1Cl)c1ccc(Cl)cc1-2 [Beispiel 31, 9-Chlor-6-(2-chlorphenyl)-4H-imidazo[1,5-a][1,4]benzodiazepin-3-carboxamid] | > 200 mg/kg | 0.97 mg/kg |  |
| CNC1=Nc2ccc(Cl)cc2C(c2ccccc2)=[N+]([O-])C1 [Chlordiazepoxyd, reference compound] |  |  | ED50 (CF-1-Mäuse [1]; [4]): 33.5 mg/kg; ED50 (CF-1-Mäuse [2]; standard compounds): 3.9 mg/kg |
| CN1C(=O)CN=C(c2ccccc2)c2cc(Cl)ccc21 [Diazepam, reference compound] |  |  | ED50 (CF-1-Mäuse [1]; Mus musculus, po, 0.5 h): 7.4 mg/kg; ED50 (CF-1-Mäuse [2]; standard compounds): 1 mg/kg |
| CCC1(c2ccccc2)C(=O)NC(=O)NC1=O [Natriumphenobarbital, reference compound] |  |  | ED50 (CF-1-Mäuse [2]; standard compounds): 19 mg/kg |
| CN(C)CCCN1c2ccccc2Sc2ccc(Cl)cc21 [Chlorpromazin, reference compound] |  |  | ED50 (CF-1-Mäuse [1]; [4]): 10 mg/kg |
| NC(=O)c1ncn2c1C(O)N=C(c1ccccc1Cl)c1ccccc1-2 (centres unmarked) [Beispiel 72, 6-(2-Chlorphenyl)-4-hydroxy-4H-imidazo[1,5-a][1,4]benzodiazepin-3-carboxamid] | > 200 mg/kg | 0.86 mg/kg |  |
| COc1ccc2c(c1)N(C[C@H](C)CN(C)C)c1ccccc1S2 [Methotrimeprazin, reference compound] |  |  | ED50 (CF-1-Mäuse [1]; [4]): 3.8 mg/kg |
| Cc1nc(C(N)=O)c2n1-c1ccccc1C(c1ccccc1Cl)=NC2 [Beispiel 63, 6-(2-Chlorphenyl)-1-methyl-4H-imidazo[1,5-a][1,4]benzodiazepin-3-carboxamid] | > 200 mg/kg | 5.1 mg/kg |  |
| NC(=O)c1ncn2c1CN=C(c1ccccc1Cl)c1ccccc1-2 [Beispiel 27, 6-(2-Chlorphenyl)-4H-imidazo[1,5-a][1,4]benzodiazepin-3-carboxamid] | > 200 mg/kg | 7.4 mg/kg |  |
| N-Acetyl-6-(2-chlorphenyl)-4H-imidazo-[1,5-a][1,4]benzodiazepin-3-carboxamid-acetylester |  |  | ED50 (CF-1-Mäuse [1]; compounds of the invention, mice unable to stay 2 min on the rotating rod, 30 min after administration): >200 mg/kg p.o. |
| CC(=O)NC(=O)c1ncn2c1CN=C(c1ccccc1Cl)c1ccccc1-2 [Beispiel 68, N-Acetyl-6-(2-chlorphenyl)-4H-imidazo[1,5-a][1,4]benzodiazepin-3-carboxamid] |  | 1.3 mg/kg |  |
